Key:
[1] = system: liver cancer(Hep3B) cell line; assay: WST-1 assay, cell viability of liver cancer cell line; format: cell-based; details: 10-100 µg/Mℓ, 24 hours, FIG. 6
Protocol: (§1) The cytotoxicity of the Tr-9 compound to six cancer cell lines was confirmed. Lung cancer(A549), gastric cancer(AGS), liver cancer(Hep3B)), breast cancer(MDA-MB-231), colorectal cancer(HCT116) and pancreatic cancer(BxPC-3) cell lines and fibroblasts were aliquoted in a 96-well plate in an amount of 5×10^3 cells/well, and the novel compound Tr-9 was treated thereto at a concentration of 10, 20, 40, 60, 80, 100 µg/Mℓ for 24 hours, respectively. Lung cancer cell line was further treated at a concentration of 100 µg/Mℓ for 24 hours, 48 hours and 72 hours.
(§2) Then, the amount of living cells was measured using WST(high sensitive Water Soluble Tetrazolium salt). WST reacts with dehydrogenase in living cells and produces orange-colored watersoluble formazan. Since dehydrogenase that reacts with WST is an enzyme present in the mitochondrial electron transport chain of metabolically active cells and is effective only in living cells, the production of formazan is proportional to the number of living cells. Therefore, the absorbance at 450 nm was measured to confirm the cell viability through the formation of formazan.

[2] = system: colorectal cancer(HCT116) cell line; assay: WST-1 assay, cell viability of colorectal cancer cell line; format: cell-based, human; details: 10-100 µg/Mℓ, 24 hours, FIG. 7
Protocol: as §1, §2

[3] = system: pancreatic cancer(BxPC-3) cell line; assay: WST-1 assay, cell viability of pancreatic cancer cell line; format: cell-based; details: 10-100 µg/Mℓ, 24 hours, FIG. 8
Protocol: as §1, §2

[4] = system: gastric cancer(AGS) cell line; assay: WST-1 assay, cell viability of gastric cancer cell line; format: cell-based; details: 10-100 µg/Mℓ, 24 hours, FIG. 4
Protocol: as §1, §2

[5] = system: Lung cancer(A549) cell line; assay: WST-1 assay, cell viability of lung cancer cell line; format: cell-based, human; details: 10-100 µg/Mℓ, 24 hours, FIG. 3
Protocol: as §1, §2

[6] = system: breast cancer(MDA-MB-231) cell line; assay: WST-1 assay, cell viability of breast cancer cell line; format: cell-based; details: 10-100 µg/Mℓ, 24 hours, FIG. 5
Protocol: as §1, §2

Measured: cell viability

C=C(C)C1CC2=CC(=O)CC2C(C)CC1OC(=O)/C(C)=C\C (stereo not drawn) [Tr-10]
decreases the cell viability: all assays above

From patent US20230107983A1, “COMPOUND ISOLATED FROM TORILIDIS FRUCTUS, AND ANTICANCER PHARMACEUTICAL COMPOSITION CONTAINING SAME AS ACTIVE INGREDIENT” (PHARMA-GENE CO., LTD., priority 2020, published 2023)
